Patent US20240409647A1, “BISPECIFIC BINDING PROTEINS AGAINST ALARMINS AND USES THEREOF” (SINOMAB BIOSCIENCE LIMITED, priority 2022, published 2024)

How the values were obtained:
[1] = tested on: ILC2 population in human PBMC; test: ILC2 cell population in human PBMC culture (flow cytometry); assay type: cell-based; set-up: key: −: no inhibition; +: weak; ++: moderate; +++: strong inhibition; conditions: IL-2 (10 unit/mL) and three alarmins (10 ng/ml), 5 days
Text: (§1) While alarmins are known to work in concert to enhance ILC2 and Th2 cell functions such as increase in cell population, steroids such as Dexamethasone (Dex) can negate these effects, resulting in the mitigation of type 2 immune responses [Jia, Yi et al. American Journal Of Respiratory Cell And Molecular Biology, vol. 55, 5 (2016): 675-683]. ILC2 and Th2 cell population can be determined by flow cytometry (BD FACSVerse) following standard procedures known to those skilled in the art.

[2] = tested on: Th2 cell population in human PBMC; test: Th2 cell population in human PBMC culture (flow cytometry); assay type: cell-based; set-up: key: −: no inhibition; +: weak; ++: moderate; +++: strong inhibition; conditions: IL-2 (10 unit/mL) and three alarmins (10 ng/ml), 5 days
Text: as §1

[3] = patients who discontinued ICS and LABA, 12 weeks; placebo 41%; cited from earlier work

| Molecule | Cell proliferation inhibition, ILC2 [1] | Cell proliferation inhibition, Th2 [2] | rate of loss of asthma control [3] [%] |
| --- | --- | --- | --- |
| C[C@@H]1C[C@H]2[C@@H]3CCC4=CC(=O)C=C[C@]4(C)[C@@]3(F)[C@@H](O)C[C@]2(C)[C@@]1(O)C(=O)CO [Dex, Dexamethasone, reference compound] | + | +++ | – |
| Dupilumab: anti-IL-4Ra antibody inhibiting both IL-4 and IL-13 responses [reference compound] | – | – | 19 |
